Experimental data as given in PMC5848165 (Toxins, 2018).
Residues, ends and D or L forms follow the SMILES beside them.

How the values were obtained:
[1] = biological target: T1, hNav1.7 (Homo sapiens, UniProt Q15858); test: Whole-cell patch clamp, WT Nav1.7 in HEK293 cells; format: cell-based
T1 construct: expressed in transfected cells; host or cells: HEK293 (HEK293T) cells, transient
From the text: Nine sodium channel subtypes have been identified and classified as TTX-S (Nav1.1–Nav1.4, Nav1.6, and Nav1.7) or TTX-R types (Nav1.5, Nav1.8, and Nav1.9). […] However, the subtype selectivity of JZTX-34 on the subtype of sodium channel is still unknown. In this work, effects of JZTX-34 on VGSC subtypes (Nav1.1–Nav1.8) were examined. Nav1.1–Nav1.7 were transfected into HEK293 cells and Nav1.8 currents were expressed in ND cells. Inward sodium currents were elicited by a 50 ms depolarizing potential to −10 mV from a holding potential of −80 mV every 5 s. […] No effects on other sodium channel subtypes were found (Nav1.1, Nav1.2, Nav1.4–Nav1.6, and Nav1.8) (Figure S2).
Figure 2 Selectivity of JZTX-34 on sodium channel subtypes. All inward sodium channels were elicited by a 50 ms depolarizing potential to −10 mV from a holding potential of −80 mV every 5 s. One μM JZTX-34 was added to rNav1.3. (A) hNav1.7. (B,C) Dose-dependent inhibition of JZTX-34 on rNav1, rNav3, and hNav1.7 (n = 5). […]
The HEK293T cells were maintained in standard culture conditions (5% CO2 and 37 °C). […] After culturing for 36–72 h, cells with obvious green fluorescence were selected for sodium currents recordings the internal solution for sodium currents recording that contained (in mM) 140 CsF, 5 NaCl, 10 HEPES, 3 Na2-ATP, and 10 EGTA. […]
(§1) Sodium currents were recorded from DRG, HEK293, and ND cells by the whole-cell patch-clamp technique at 25 °C. […] Experiments date were acquired from whole-cell Axon 700B patch clamp amplifier (Molecular Devices, Sunnyvale, CA, USA) and analyzed by the program Clampfit10.0 (Molecular Devices, Sunnyvale, CA, USA) and Sigmaplot. […]
(§2) Data from Axon 700B patch clamp were analyzed by Clampfit10.0 (Molecular Devices, Sunnyvale, CA, USA). […] The G-V curves were obtained by calculating the conductance (G) at each voltage (V) using the equation G = I/(V1 − Vrev), with Vrev being the reversal potential determined for each cell individually. […] All the results from patch clamp and animal models are expressed as means ± standard error of the mean (SEM). […]

[2] = test system: TTX-R sodium channels from rat DRG neurons; test: Whole-cell patch clamp, TTX-R sodium currents in rat DRG neurons; format: cell-based, rat (Sprague-Dawley); details: 1 µM synthetic JZTX-34; 100 nM TTX in external solution; −10 mV from −80 mV
[3] = test system: Nav1.7; test: Gating properties of Nav1.7 (current-voltage, steady-state activation and inactivation); format: cell-based, human
Protocol: We investigated the effects of this toxin on the gating properties of Nav1.7. The current-voltage relationship of Nav1.7 was investigated using step depolarization ranging from −80 to +80 mV from a holding potential of −80 mV. Under control conditions, the threshold of initial activation was about −40 mV, and the inward current peaked at −20 mV. […] The midpoint of channel activation before and after application of 1 µM toxin was −27.9 ± 3.3 and −28.1 ± 2.9 mV, respectively (Figure S3B). […] The effect of JZTX-34 on steady-state inactivation was also investigated using a standard two-pulse protocol as described in the legend. […]
cDNA genes encoding rat Nav1.1, Nav1.2, Nav1.3, Nav1.4, Nav1.5, human Nav1.7 (hNav1.7), and hNav1.8 were subcloned into the vectors pRGB4 and pcDNA3.1-mod, respectively. The chimera of Nav1.5 (Nav1.7-DII-S3-S4) and Nav1.7 (Nav1.5-DIV-S3-S4) were constructed according the methods described previously. Mutations of Nav1.5 and Nav1.7 were constructed using QuikChange II XL Site-Directed Mutagenesis kit (Agilent Technologies Inc, Palo Alto, CA, USA). All chimera and mutations were sequenced to determine the right sequences.
The HEK293T cells were maintained in standard culture conditions (5% CO2 and 37 °C). Then, 10% fetal bovine serum was added to Dulbecco’s modified Eagle’s medium. Sodium channel subtypes (Nav1.1–Nav1.5, Nav1.7), the chimera and mutants of Nav1.5 and Nav1.7 with β1subnit tagged with eGFP in a molar ratio of 2:1, were transiently co-transfected into HEK293 cells using Lipofectamine 3000 (Invitrogen, Carlsbad, CA, USA). Nav1.8, β1subnit, and eGFP were co-transfected into ND cells using the same protocol. After culturing for 36–72 h, cells with obvious green fluorescence were selected for sodium currents recordings the internal solution for sodium currents recording that contained (in mM) 140 CsF, 5 NaCl, 10 HEPES, 3 Na2-ATP, and 10 EGTA. […]
as §1
as §2, with “(SEM). Statistical significance was calculated using Student’s t-test and was defined as p < 0.05.” for “(SEM).”

T1 sequence (Q07699 19-218): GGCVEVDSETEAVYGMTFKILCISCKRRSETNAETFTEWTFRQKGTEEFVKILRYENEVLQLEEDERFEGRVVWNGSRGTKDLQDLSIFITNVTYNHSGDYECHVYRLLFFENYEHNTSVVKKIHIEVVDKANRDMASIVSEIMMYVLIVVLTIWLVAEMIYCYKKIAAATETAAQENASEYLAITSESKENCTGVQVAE
T1 sequence (Q15858 other isoform, or with tags, fused parts or gaps): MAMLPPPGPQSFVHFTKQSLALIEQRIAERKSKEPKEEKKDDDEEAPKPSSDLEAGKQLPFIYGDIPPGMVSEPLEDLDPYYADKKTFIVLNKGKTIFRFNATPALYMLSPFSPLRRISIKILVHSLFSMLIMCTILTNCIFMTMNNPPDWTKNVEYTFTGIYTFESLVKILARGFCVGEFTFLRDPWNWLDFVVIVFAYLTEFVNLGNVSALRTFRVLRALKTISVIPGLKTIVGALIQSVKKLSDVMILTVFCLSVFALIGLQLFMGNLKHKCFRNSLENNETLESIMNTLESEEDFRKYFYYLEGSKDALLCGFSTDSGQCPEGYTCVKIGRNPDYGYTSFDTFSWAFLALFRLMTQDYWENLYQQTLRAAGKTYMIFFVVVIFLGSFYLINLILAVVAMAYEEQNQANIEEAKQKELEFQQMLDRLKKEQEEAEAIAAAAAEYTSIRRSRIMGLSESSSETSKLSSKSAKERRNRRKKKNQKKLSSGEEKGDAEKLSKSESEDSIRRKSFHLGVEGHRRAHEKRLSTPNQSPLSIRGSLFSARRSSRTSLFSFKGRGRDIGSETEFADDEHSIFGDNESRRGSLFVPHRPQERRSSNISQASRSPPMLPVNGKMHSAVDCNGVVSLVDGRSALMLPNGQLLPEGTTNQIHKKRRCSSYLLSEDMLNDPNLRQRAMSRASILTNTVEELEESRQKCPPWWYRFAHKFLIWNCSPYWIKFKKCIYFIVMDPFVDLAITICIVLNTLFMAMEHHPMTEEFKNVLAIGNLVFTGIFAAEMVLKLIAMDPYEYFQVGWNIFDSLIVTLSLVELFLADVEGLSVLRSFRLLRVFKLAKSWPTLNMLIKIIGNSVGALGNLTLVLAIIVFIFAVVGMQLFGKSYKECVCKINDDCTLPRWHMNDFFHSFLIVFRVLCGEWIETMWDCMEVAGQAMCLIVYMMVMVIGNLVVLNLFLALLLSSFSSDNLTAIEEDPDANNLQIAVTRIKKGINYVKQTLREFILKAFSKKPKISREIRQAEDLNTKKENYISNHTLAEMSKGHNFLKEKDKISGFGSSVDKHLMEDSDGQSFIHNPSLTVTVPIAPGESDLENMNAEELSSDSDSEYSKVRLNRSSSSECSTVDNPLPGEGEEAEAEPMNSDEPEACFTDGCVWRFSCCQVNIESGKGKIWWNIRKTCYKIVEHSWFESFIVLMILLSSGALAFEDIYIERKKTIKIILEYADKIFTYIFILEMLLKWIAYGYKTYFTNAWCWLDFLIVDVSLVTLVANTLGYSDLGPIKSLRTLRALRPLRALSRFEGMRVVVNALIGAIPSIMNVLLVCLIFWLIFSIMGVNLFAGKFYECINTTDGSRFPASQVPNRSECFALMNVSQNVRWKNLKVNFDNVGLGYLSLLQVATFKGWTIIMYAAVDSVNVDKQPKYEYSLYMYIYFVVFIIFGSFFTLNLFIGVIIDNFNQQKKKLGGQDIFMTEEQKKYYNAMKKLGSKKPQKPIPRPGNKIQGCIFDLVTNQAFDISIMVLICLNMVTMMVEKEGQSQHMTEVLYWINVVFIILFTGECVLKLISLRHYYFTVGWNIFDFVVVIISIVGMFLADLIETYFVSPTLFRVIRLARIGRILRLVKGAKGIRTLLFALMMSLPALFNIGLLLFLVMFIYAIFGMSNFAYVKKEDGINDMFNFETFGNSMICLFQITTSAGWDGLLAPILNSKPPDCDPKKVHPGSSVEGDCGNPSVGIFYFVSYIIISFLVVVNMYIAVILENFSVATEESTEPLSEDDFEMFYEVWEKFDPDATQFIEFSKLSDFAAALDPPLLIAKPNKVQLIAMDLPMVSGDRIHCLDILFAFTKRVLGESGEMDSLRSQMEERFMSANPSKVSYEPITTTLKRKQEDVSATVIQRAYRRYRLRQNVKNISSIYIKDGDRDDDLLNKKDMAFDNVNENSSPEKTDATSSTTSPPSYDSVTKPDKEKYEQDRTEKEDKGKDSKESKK

Compound: CC(C)C[C@@H]1NC(=O)[C@H](Cc2c[nH]c3ccccc23)NC(=O)[C@H](CCC(=O)O)NC(=O)[C@H](CCCNC(=N)N)NC(=O)[C@@H](NC(=O)[C@H](C)N)CSSC[C@@H]2NC(=O)[C@@H]3CSSC[C@@H](C(=O)N[C@H](C(=O)N[C@@H](Cc4c[nH]c5ccccc45)C(=O)N[C@@H](CC(=O)O)C(=O)N[C@@H](Cc4c[nH]c5ccccc45)C(=O)N[C@H](C(=O)N[C@H](C(=O)O)C(C)C)[C@@H](C)O)C(C)C)NC(=O)[C@H](Cc4c[nH]cn4)NC(=O)[C@H](Cc4ccc(O)cc4)NC(=O)[C@@H]4CCCN4C(=O)[C@H](Cc4c[nH]c5ccccc45)NC(=O)[C@H](CCCCN)NC(=O)[C@H](CCCCN)NC(=O)[C@H](CCCNC(=N)N)NC(=O)[C@H](CSSC[C@H](NC(=O)CNC(=O)CNC1=O)C(=O)N[C@@H](CO)C(=O)N[C@@H](CCCCN)C(=O)N[C@@H](CC(=O)O)C(=O)N[C@@H](C)C(=O)N[C@@H](CC(=O)O)C(=O)N3)NC(=O)[C@H](CCC(=O)O)NC(=O)[C@H](CC(C)C)NC(=O)[C@H](Cc1c[nH]cn1)NC(=O)[C@H](C)NC2=O [JZTX-34, Jingzhaotoxin-34] (HELM PEPTIDE1{A.C.R.E.W.L.G.G.C.S.K.D.A.D.C.C.A.H.L.E.C.R.K.K.W.P.Y.H.C.V.W.D.W.T.V}$PEPTIDE1,PEPTIDE1,2:R3-16:R3|PEPTIDE1,PEPTIDE1,9:R3-21:R3|PEPTIDE1,PEPTIDE1,15:R3-29:R3$$$V2.0; N-terminus and C-terminus assumed)
- inhibition at 1 µM ([1]; 1 µM, mutant comparison experiment (Figure 4), read-out: inhibition of WT Nav1.7 currents): 54.3 ± 5.2%
- reduction of Nav1.7 currents ([1]; 1 µM, −10 mV from −80 mV holding, mean ± S.E., subtype selectivity experiment (Figure 2)): 54.6 ± 5.3%
- IC50 ([1]; −10 mV from −80 mV holding, Hill fit, n = 5): 610 nM
- effect on TTX-R sodium currents [2]: had no effect on TTX-R sodium currents
- shift of steady-state inactivation ([3]; 1 µM): small hyperpolarizing shift in the steady-state inactivation
- midpoint of steady-state inactivation with toxin ([3]; 1 µM, "with or without" toxin −67.3 and −73.7 mV, respectively, 500 ms prepulse −100 to −10 mV, test pulse −10 mV 20 ms, n = 5): about −67.3 mV
- current-voltage relationship of Nav1.7 ([3]; 1 µM, steps −80 to +80 mV from −80 mV holding): did not alter the current-voltage relationship
- midpoint of channel activation after toxin ([3]; after 1 µM toxin (before: −27.9 ± 3.3 mV), Boltzmann fit, n = 5): −28.1 ± 2.9 mV
